Counter-ions that a name gives are not always drawn.
What was measured:
[1] = tested on: RT-112; experiment: Cytotoxicity against NQO2 expressing human RT112 cells by MTT assay; format: functional, cell-based
[2] = tested on: RT-112; experiment: Cytotoxicity against NQO2 expressing human RT112 cells in presence of NRH cofactor by MTT assay; format: functional, cell-based
[3] = target: NAD(P)H dehydrogenase [quinone] 1 (Homo sapiens) (UniProt P15559); experiment: Activity of recombinant human NQO1 assessed as specific activity
[4] = tested on: RT-112; experiment: Selectivity ratio of IC50 for RT112 cells in presence of cofactor NRH to IC50 for RT112 cells; format: functional, Homo sapiens
[5] = tested on: BE; experiment: Cytotoxicity against low NQO1 protein expressing human BE cells by MTT assay; format: functional, cell-based
[6] = tested on: NCI-H460; experiment: Cytotoxicity against high NQO1 protein expressing human H460 cells by MTT assay; format: functional, cell-based
[7] = tested on: BE; experiment: Selectivity ratio of IC50 for human H460 cells IC50 for human BE cells; format: functional

Sequence of NAD(P)H dehydrogenase [quinone] 1 (Homo sapiens) (P15559 whole entry): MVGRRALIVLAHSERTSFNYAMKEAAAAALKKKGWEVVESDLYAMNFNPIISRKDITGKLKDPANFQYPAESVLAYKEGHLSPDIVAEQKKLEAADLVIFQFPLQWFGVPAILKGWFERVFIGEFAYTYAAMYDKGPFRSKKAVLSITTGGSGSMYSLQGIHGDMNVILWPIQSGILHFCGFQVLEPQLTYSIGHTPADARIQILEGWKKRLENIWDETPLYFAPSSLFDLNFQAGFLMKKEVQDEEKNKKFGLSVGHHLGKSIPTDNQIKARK

SMILES | IC50 [1] [nM] | IC50 [2] [nM] | Activity [3] [µmol/min/mg] | Ratio IC50 [4] | IC50 [5] [nM] | IC50 [6] [nM] | Ratio IC50 [7]
C[n+]1c2ccc(Cl)cc2cc2[n-]c3c([N+](=O)[O-])cccc3c21 | 880 | 820 | – | – | – | – | –
C[n+]1c2ccc(F)cc2cc2[n-]c3c([N+](=O)[O-])cc([N+](=O)[O-])cc3c21 | 450 | 190 | 2.96 | – | – | – | –
NC(=O)c1cc(N2CC2)c([N+](=O)[O-])cc1[N+](=O)[O-] [TRETAZICAR] | 88800 | 150 | 3.56 | 586 | – | – | –
C[n+]1c2ccccc2cc2[n-]c3cc(Cl)c([N+](=O)[O-])cc3c21 | 1030 | 1080 | – | – | – | – | –
C[n+]1c2ccc(Cl)cc2cc2[nH]c3ccc([N+](=O)[O-])cc3c21 | 410 | 280 | 18.9 | – | 950 | 460 | –
Cn1c(/C=C/CO)c(CO)c2c1C(=O)C=C(N1CC1)C2=O [APAZIQUONE] | – | – | 79.8 | – | 600 | 5.9 | 100
C[n+]1c2ccc(Cl)cc2cc2[n-]c3c([N+](=O)[O-])cc([N+](=O)[O-])cc3c21 | 290 | 230 | – | – | – | – | –
C[n+]1c2ccccc2cc2[n-]c3cc([N+](=O)[O-])c(Br)cc3c21 | 360 | 320 | 13.9 | – | 580 | 380 | –
C[n+]1c2ccccc2cc2[n-]c3ccccc3c21 [CRYPTOLEPINE HYDROCHLORIDE] | 820 | 800 | 4.53 | – | 1280 | 1450 | –
C[n+]1c2ccccc2cc2[n-]c3c([N+](=O)[O-])c(Cl)ccc3c21 | 760 | 640 | 26.7 | – | 1480 | 1880 | –
C[n+]1c2ccccc2cc2[n-]c3c([N+](=O)[O-])cc(Br)cc3c21 | 240 | 150 | 8.66 | – | 780 | 590 | –
C[n+]1c2ccc(F)cc2cc2[n-]c3c([N+](=O)[O-])cccc3c21 | 1350 | 1100 | 2.72 | – | – | – | –
C[n+]1c2ccc(F)cc2cc2[n-]c3ccc([N+](=O)[O-])cc3c21 | 2130 | 1670 | – | – | – | – | –

From ChEMBL document CHEMBL1149672, “Synthesis of cryptolepine analogues as potential bioreducible anticancer agents” (Bioorg Med Chem, 2007)
